Measurements as given in patent US20260356824A1, “COMPOUNDS FOR TREATING FIBROTIC DISEASES” (Meta-Immue Inc., priority 2023, published 2026).

Experiments:
A2058 cells = assay: Chemotaxis Assay (LPA-induced migration of A2058 cells); type: cell-based; details: Homo sapiens, 4 to 8 hours, crystal violet 590 nm
Description: For monitoring the migration of cells, Neuroprobe ChemoTx® System plates ([…], 5.7 mm diameter sites; Gaithersburg, MD, USA) were utilized. To induce cell migrations, a concentration of […] or vehicle in DMEM were loaded to the bottom chamber. A total of 15,000 A2058 cells, which were starved for 24 hr following treated with test compounds or vehicle, were then applied to the upper membrane coated with 0.001% fibronectin. The plate was incubated for 4 to 8 hours to allow cell migration. Following incubation, the plate was dissembled, and the migrated cells were visualized by crystal violet staining. The stained area with crystal violet was quantified by measuring the absorbance at 590 nm and the relative percentage of the control was calculated.

BSEP = target: T1, BSEP (Homo sapiens, UniProt O95342); assay: Bile Salt Export Pump (BSEP) Assay, Sf9 insect cell vesicles expressing BSEP; type: in vitro ADME; details: 10 μM test compound, probe substrate 1 μM [3H]-taurocholic acid, 15 min incubation
T1 construct: ATP-dependent uptake of radiolabelled probe substrate
Description: • 1. A stock solution was prepared with the test article (Sponsor compound) in DMSO. • 2. All final assay solutions of probe substrate, reference inhibitor or test article contain 0.5% (v/v) DMSO (vehicle control). • 3. Test article concentrations in transport study were specified in the Summary Table of Experimental Conditions of this protocol.
• 1. Bovine Serum Albumin (BSA) • 2. Dimethyl sulfoxide (DMSO) • 3. BSEP Assay Uptake Buffer (10 mM HEPES-Tris pH 7.4, 0.1 M KNO3, 12.5 mM Mg(NO3)2, 50 mM sucrose) • 4. BSEP Wash Buffer (10 mM Tris-HCl pH 7.4, 0.1 M KNO3, 50 mM sucrose) • 5. BSEP Blocking Buffer (BSEP Wash Buffer+0.5 mg/mL BSA) • 6. 25 mM Mg-ATP solution • 7. 25 mM AMP solution • 8. Corning Costar 96-well flat-bottom, untreated, white Assay Plate (Corning Cat. No. 3912) • 9. Millipore MultiscreenHTs Filtration Plate, glass fiber FB—1.0/0.65 μm (Cat. No. MSFBN6B10 or glass fiber FC—1.2/0.65 μm (Cat. No. MSFCN6B10) • 10. Millipore MultiscreenHTS Vacuum Manifold (Cat. No. MSVMHTS00) • 11. Probe substrates listed in Table 1 • 12. Reference inhibitors listed in Table 1 • 13. Test articles
• 1. Test system: • a. 96-well flat bottom plate containing a suspension of vesicles and a corresponding 96-well glass fiber filtration plate. • b. Transport experiments were conducted in the Assay Uptake Buffer. • c. Transport experiment was initiated with the addition of Mg-ATP or AMP to appropriate wells. • d. Each condition was run in triplicate wells. • 2. Prepared the 96-well flat-bottom assay plate. • a. Incubated the assay plate with the Blocking Buffer for 60 min at 37 °C with orbital shaking at approximately 90 rpm. (NOTE: This is done to prevent non-specific binding of vesicles to polystyrene assay plate). • b. After 60 min, completely removed the Blocking Buffer from the assay plate. • c. The Assay Uptake Buffer solutions were added to the assay plate wells as follows: • i. For probe substrate transport assays, the Assay Uptake Buffer contained vesicles and the probe substrate at the specified concentration. • ii. For the reference inhibition assay, the Assay Uptake Buffer contained vesicles, the reference inhibitor and the probe substrate at the specified concentration in Table 1. • iii. For the test article assays, Assay Uptake Buffer contained vesicles, the test article and the probe substrate at the specified concentration in Table 1. • 3. Incubate at 37 °C with orbital shaking at approximately 90 rpm for the time period specified in Table 1 of this protocol. • 4. Using the 25 mM Mg-ATP or AMP stocks, Mg-ATP or AMP was added to test wells of flat bottom assay plate to a final concentration of 5 mM. • 5. Incubated at 37 °C with orbital shaking at approximately 90 rpm for the incubation time specified in Table 1 of this protocol. • 6. Prepared the 96-well glass fiber filtration plate: • a. Incubated the filtration plate with the Blocking Buffer for 2 min at room temperature with under no vacuum. • b. Turned on vacuum and allowed Blocking Buffer to filter through plate. • c. With vacuum on, filter plate was washed with ice cold Wash Buffer. • 7. At the end of the specified incubation time indicated in […] of this protocol, vesicle transport was quenched by adding ice cold Wash Buffer to samples in 96-well assay plate. • 8. Mixed assay samples (now diluted in Wash Buffer) with pipette and transfered 175 μL into the 96-well glass fiber filtration plate to separate vesicles from buffer by applying vacuum. • 9. Washed filter plate wells with ice cold Wash Buffer. • 10. Allowed filter plate to dry under vacuum. • 11. Transfered filters to scintillation sample plate and added 700 μL of scintillation fluid to the above samples. • 12. Counted the above samples on a 1450 Microbeta (Perkin-Elmer).
• 1. The amount of substrate was quantified with radiometric detection on a 1450 Microbeta (Perkin-Elmer). • 2. For transport study samples run in triplicate, the mean and standard deviation of the replicates were reported. • 3. […]

hLPAR1 = target: T2, hLPAR1 (Homo sapiens, UniProt Q92633); assay: Ca2+ Flux Assay (B103 cells stably expressing hLPAR1); type: cell-based; details: LPA-induced calcium release, Fura-2 AM, compound 20 min at RT
T2 construct: expressed in transfected cells
Description: B103 cells stably expressing hLPAR1 were seeded at a density of 1.0×10^5 cells per well in clear flat-bottom black 96-well plates and incubated overnight in complete media. The following day, the cells were pre-incubated in serum-free media for 2 hours prior to ensure cellular equilibration. For the loading a calcium-sensitive fluorescent dye, the cells were treated with a concentration of 5 μM Fura-2 AM dye (Sigma, F1225) in Hank's buffered salt solution (HBSS) supplemented with 20 mM HEPES, […], and 0.3% fatty-acid-free bovine serum albumin for 40 minutes at room temperature (RT). Test compounds, prepared in DMSO, were then added to each well and incubated for 20 minutes at RT. To induce calcium release, a concentration of […] in HBSS supplemented with 20 mM HEPES, and 0.3% fatty-acid-free bovine serum albumin was introduced. Intracellular calcium mobilization was subsequently quantified by monitoring the fluorescence intensity using the Spark® multimode microplate reader (TECAN).

T2 sequence (Q92633 whole entry): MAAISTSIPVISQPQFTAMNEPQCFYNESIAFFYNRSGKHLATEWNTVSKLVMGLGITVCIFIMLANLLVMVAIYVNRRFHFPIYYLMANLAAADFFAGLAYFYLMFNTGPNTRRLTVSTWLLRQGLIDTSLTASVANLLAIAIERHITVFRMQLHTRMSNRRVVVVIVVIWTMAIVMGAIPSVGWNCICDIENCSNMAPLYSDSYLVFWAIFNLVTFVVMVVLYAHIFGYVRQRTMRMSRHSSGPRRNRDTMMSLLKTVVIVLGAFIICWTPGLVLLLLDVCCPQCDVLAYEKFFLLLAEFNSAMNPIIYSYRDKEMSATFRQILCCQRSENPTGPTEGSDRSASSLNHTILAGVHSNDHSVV
T1 sequence (O95342 whole entry): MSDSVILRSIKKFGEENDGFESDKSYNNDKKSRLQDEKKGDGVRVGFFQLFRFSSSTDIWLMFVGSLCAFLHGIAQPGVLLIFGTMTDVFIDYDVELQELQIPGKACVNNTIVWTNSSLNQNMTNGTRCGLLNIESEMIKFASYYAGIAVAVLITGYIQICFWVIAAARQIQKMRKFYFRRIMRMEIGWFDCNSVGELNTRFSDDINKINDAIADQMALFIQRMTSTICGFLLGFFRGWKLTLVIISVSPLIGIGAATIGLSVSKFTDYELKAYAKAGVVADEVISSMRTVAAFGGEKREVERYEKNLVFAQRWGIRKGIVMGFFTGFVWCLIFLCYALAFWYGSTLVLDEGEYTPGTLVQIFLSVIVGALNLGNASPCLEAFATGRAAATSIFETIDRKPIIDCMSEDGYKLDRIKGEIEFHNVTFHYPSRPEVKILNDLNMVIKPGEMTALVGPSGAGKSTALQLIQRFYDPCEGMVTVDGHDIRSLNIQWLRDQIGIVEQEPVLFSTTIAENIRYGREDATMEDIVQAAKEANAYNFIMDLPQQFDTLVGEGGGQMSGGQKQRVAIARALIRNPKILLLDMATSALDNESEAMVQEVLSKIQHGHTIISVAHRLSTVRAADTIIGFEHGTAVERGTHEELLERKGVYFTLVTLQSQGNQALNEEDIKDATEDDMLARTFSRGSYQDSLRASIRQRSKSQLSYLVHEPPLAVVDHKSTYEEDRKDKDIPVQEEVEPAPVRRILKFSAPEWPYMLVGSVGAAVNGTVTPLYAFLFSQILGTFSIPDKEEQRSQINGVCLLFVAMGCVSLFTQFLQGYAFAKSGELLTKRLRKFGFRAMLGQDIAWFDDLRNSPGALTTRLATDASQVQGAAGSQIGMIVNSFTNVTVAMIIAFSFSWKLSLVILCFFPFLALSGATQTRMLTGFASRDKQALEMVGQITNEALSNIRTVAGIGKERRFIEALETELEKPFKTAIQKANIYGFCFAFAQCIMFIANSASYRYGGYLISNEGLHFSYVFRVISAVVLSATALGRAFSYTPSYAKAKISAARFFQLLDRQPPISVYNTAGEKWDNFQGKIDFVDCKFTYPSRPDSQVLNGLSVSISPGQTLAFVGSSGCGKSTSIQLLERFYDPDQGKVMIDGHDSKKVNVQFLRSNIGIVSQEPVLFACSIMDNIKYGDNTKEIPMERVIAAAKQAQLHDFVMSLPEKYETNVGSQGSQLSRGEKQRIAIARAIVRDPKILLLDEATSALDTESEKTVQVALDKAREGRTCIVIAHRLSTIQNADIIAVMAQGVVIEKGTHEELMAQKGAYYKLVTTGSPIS

SMILES | IC50 (A2058 cells) [nM] | IC50 (hLPAR1) [nM] | inhibition at 0.25 h, 10 µM (BSEP) [%]
Cc1ccccc1[C@@H](C)OC(=O)Nc1c(C)noc1C1CC2(C1)CN(c1ccc(C3(C(=O)NS(C)(=O)=O)CC3)cc1)C2 [Compound 7] | < 100 | < 10 | 75 to 100
Cc1noc(C2CC3(C2)CN(c2ccc(C4(C(=O)NS(C)(=O)=O)CC4)cc2)C3)c1NC(=O)O[C@H](C)c1ccccc1 [Compound 9] | 100 to 500 | < 10 | 50 to 75
C[C@@H](OC(=O)Nc1c(C2CCN(c3ccc(C4(C(=O)NS(=O)(=O)CCC(=O)O)CC4)cc3)CC2)nnn1C)c1ccccc1 [Compound 17] | 500 to 5000 | < 10 | ≤ 25
COc1ccc(C2CCN(c3ccc(C4(C(=O)O)CC4)cc3)CC2)c(NC(=O)O[C@H](C)c2ccccc2)c1 [Compound 19, (R)-1-(4-(4-(4-methoxy-2-(((1-phenylethoxy)carbonyl)amino)phenyl)piperidin-1-yl)phenyl)cyclopropane-1-carboxylic acid] | < 100 | < 10 | 50 to 75
Cc1ccccc1[C@@H](C)OC(=O)Nc1c(C)noc1C1CC2(C1)CN(c1ccc(C3(C(=O)O)CC3)cc1)C2 [Compound 33, 1-(4-{6-[3-methyl-4-({[(1R)-1-(2-methylphenyl)ethoxy]carbonyl}amino)-1,2-oxazol-5-yl]-2-azaspiro[3.3]heptan-2-yl}phenyl)cyclopropane-1-carboxylic acid] | < 100 | < 10 | 75 to 100
CCc1ccccc1[C@@H](C)OC(=O)Nc1c(C)noc1C1CCN(c2ccc(C3(C(=O)NS(=O)(=O)CCC(=O)O)CC3)cc2)CC1 [Compound 37, 3-({[1-(4-{4-[4-({[(1R)-1-(2-ethylphenyl)ethoxy]carbonyl}amino)-3-methyl-1,2-oxazol-5-yl]piperidin-1-yl}phenyl)cyclopropyl]formamido}sulfonyl)propanoic acid] | < 100 | < 10 | 50 to 75
Cc1noc(C2CC3(C2)CN(c2ccc(C4(C(=O)O)CC4)cc2)C3)c1NC(=O)O[C@H](C)c1ccccc1 [Compound 54, 1-(4-{6-[3-methyl-4-({[(1R)-1-phenylethoxy]carbonyl}amino)-1,2-oxazol-5-yl]-2-azaspiro[3.3]heptan-2-yl}phenyl)cyclopropane-1-carboxylic acid] | < 100 | 10 to 200 | 25 to 50
C[C@@H](OC(=O)Nc1c(C2CCN(c3ccc(C4(C(=O)O)CC4)cc3)CC2)cnn1C)c1ccccc1 [Compound 55] | 100 to 500 | 10 to 200 | 25 to 50
C[C@@H](OC(=O)Nc1c(C2CCN(c3ccc(C4(C(=O)NS(=O)(=O)CCO)CC4)cc3)CC2)nnn1C)c1ccccc1 [Compound 59] | 100 to 500 | < 10 | ≤ 25
Cc1cc(C2(C(=O)O)CC2)ccc1N1CCC(c2onc(C)c2NC(=O)O[C@H](C)c2ccccc2)CC1 [Compound 61] | < 100 | < 10 | 50 to 75
Cc1noc(C2CCN(c3ccc(C4(C(=O)NS(=O)(=O)C(C)C(=O)O)CC4)cc3)CC2)c1NC(=O)O[C@H](C)c1ccccc1 (stereo partly drawn) [Compound 71] | < 100 | < 10 | 25 to 50
Cc1noc(C2CCN(c3ccc(C4(C(=O)NS(=O)(=O)C(C)CC(=O)O)CC4)cc3)CC2)c1NC(=O)O[C@H](C)c1ccccc1 (stereo partly drawn) [Compound 72] | < 100 | < 10 | ≤ 25

Further lines, with some results ahead:

IC50 (A2058 cells) [nM] | IC50 (hLPAR1) [nM] | SMILES | inhibition at 0.25 h, 10 µM (BSEP) [%]
100 to 500 | 10 to 200 | Cc1noc(C2CCN(c3ccc(C4(C(=O)O)CC4)cc3)CC2)c1C(O)CCCc1ccccc1 (stereo not drawn) [Compound 20] | 75 to 100
100 to 500 | 10 to 200 | C[C@@H](OC(=O)Nc1c(C2CCN(c3ccc(C4(C(=O)NS(=O)(=O)CC(=O)O)CC4)cc3)CC2)nnn1C)c1ccccc1 [Compound 58, 2-[[1-[4-[4-[1-methyl-5-[[(1R)-1-phenylethoxy]carbonylamino]triazol-4-yl]-1piperidyl]phenyl]cyclopropanecarbonyl]sulfamoyl]acetic acid] | ≤ 25
100 to 500 | 10 to 200 | C[C@@H](OC(=O)Nc1c(C2CCN(c3ccc(C4(C(=O)O)CC4)cc3)CC2)nnn1C)c1ccccc1 [Compound 60, (R)-1-(4-(4-(1-methyl-5-(((1-phenylethoxy)carbonyl)amino)-1H-1,2,3-triazol-4-yl)piperidin-1-yl)phenyl)cyclopropane-1-carboxylic acid] | ≤ 25
< 100 | < 10 | COc1cc(C2(C(=O)O)CC2)ccc1N1CCC(c2onc(C)c2NC(=O)O[C@H](C)c2ccccc2)CC1 [Compound 63, (R)-1-(3-methoxy-4-(4-(3-methyl-4-(((1-phenylethoxy)carbonyl)amino)isoxazol-5-yl)piperidin-1-yl)phenyl)cyclopropane-1-carboxylic acid] | ≤ 25
100 to 500 | 10 to 200 | CNC(=O)C1(c2ccc(N3CCC(c4onc(C)c4NC(=O)O[C@H](C)c4ccccc4)CC3)cc2)CC1 [Compound 65] | 50 to 75
< 100 | < 10 | Cc1noc(C2CCN(c3ccc(C4(C(=O)O)CC4)cc3)CC2)c1NC(=O)O[C@H](C)c1ccccc1Cl [Compound 74, 1-(4-{4-[4-({[(1R)-1-(2-chlorophenyl)ethoxy]carbonyl}amino)-3-methyl-1,2-oxazol-5-yl]piperidin-1-yl}phenyl)cyclopropane-1-carboxylic acid] | 50 to 75
< 100 | < 10 | Cc1noc(C2CCN(c3ccc(C4(C(=O)NS(=O)(=O)CC(C)(C)C(=O)O)CC4)cc3)CC2)c1NC(=O)O[C@H](C)c1ccccc1 [Compound 78, (R)-2,2-dimethyl-3-(N-(1-(4-(4-(3-methyl-4-(((1-phenylethoxy)carbonyl)amino)isoxazol-5-yl)piperidin-1-yl)phenyl)cyclopropane-1-carbonyl)sulfamoyl)propanoic acid] | 25 to 50
